Test results taken from ChEMBL document CHEMBL3603798, “Computer-aided identification, synthesis, and biological evaluation of novel inhibitors for botulinum neurotoxin serotype A” (Bioorg Med Chem, 2015).
Active and inactive are the calls of the source. The calls are words filed in the database; no cut-off is given here.

What was measured:
[1] = molecular target: Botulinum neurotoxin type A (Clostridium botulinum, UniProt P0DPI0); test: Inhibition of Clostridium botulinum neurotoxin type A light chain by SNAPtide assay
Sequence of Botulinum neurotoxin type A (P0DPI0 2-448 limits assumed): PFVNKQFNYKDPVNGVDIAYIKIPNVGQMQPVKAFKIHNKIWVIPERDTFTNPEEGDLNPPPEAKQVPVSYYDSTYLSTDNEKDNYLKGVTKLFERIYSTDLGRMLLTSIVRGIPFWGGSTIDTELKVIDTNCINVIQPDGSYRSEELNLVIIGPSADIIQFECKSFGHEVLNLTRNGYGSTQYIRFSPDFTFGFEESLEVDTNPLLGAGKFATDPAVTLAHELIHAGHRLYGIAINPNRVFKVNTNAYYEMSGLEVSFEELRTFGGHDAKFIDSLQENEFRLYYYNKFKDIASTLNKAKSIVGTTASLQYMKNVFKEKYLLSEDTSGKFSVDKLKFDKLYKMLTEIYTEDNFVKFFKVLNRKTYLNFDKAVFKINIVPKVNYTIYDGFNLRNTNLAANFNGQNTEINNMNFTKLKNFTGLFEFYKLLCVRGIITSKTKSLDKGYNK

[2] = molecular target: Botulinum neurotoxin type A (Clostridium botulinum) (UniProt P0DPI0); test: Inhibition of Clostridium botulinum neurotoxin type A light chain incoulated in mouse Neuro2a cells assessed as reduction in SNAP-25 cleavage at 10 uM incubated for 48 hrs by SDS-PAGE based Western blotting method; assay type: cell-based
Sequence of Botulinum neurotoxin type A (Clostridium botulinum) (P0DPI0 2-448 limits assumed): as above

[3] = Toxicity against mouse Neuro2a cells assessed as reduction in cell viability at 10 to 100 uM incubated for 48 hrs; assay type: cell-based; conditions: n2a

| SMILES | IC50 [1] | inhibition [2] | Activity [3] |
| --- | --- | --- | --- |
| CC[C@@H]1Oc2ccccc2N(CC(=O)NCCCN2CCC(Cc3ccccc3)CC2)C1=O | 154 µM | – | – |
| Cc1ccc(-c2nc(SCC(=O)N3CCCC[C@@H]3C)c(S(=O)(=O)c3ccccc3)[nH]2)cc1 | 159 µM | – | – |
| COc1cccc(CN2C(=O)c3ccccc3[C@@H]2C(=O)NC2CCC(C)CC2)c1 (stereo not given in full) | 157 µM | – | – |
| O=C(COc1ccccc1/C=C1\NC(=O)N(Cc2ccccc2F)C1=O)Nc1ccc(F)cc1 | 22 µM | Active | Non-toxic |
| O=c1c2cc3c(cc2n(Cc2nc(-c4ccc(C(F)(F)F)cc4)no2)c(=O)n1Cc1nc(-c2ccc(C(F)(F)F)cc2)no1)OCO3 | 16 µM | – | – |
| O=C(COc1ccc(/C=C2\NC(=O)N(Cc3ccccc3F)C2=O)cc1)Nc1ccc(F)cc1 | 26 µM | – | – |
| O=c1[nH]c2cc3c(cc2c(=O)n1CCc1nc(-c2ccc(C(F)(F)F)cc2)no1)OCO3 | 24 µM | Active | Non-toxic |
| O=C(COc1cccc(/C=C2\NC(=O)N(Cc3ccccc3F)C2=O)c1)Nc1ccc(F)cc1 | > 50 µM | – | – |
| Cc1cc(NC(=S)N(CCCN2CCC[C@@H](C)C2)Cc2cccs2)ccc1Cl | 92 µM | – | – |
| N=C(N)NCCC[C@H](NC(=O)[C@@H](N)CCCNC(=N)N)C(=O)NCC(=O)N[C@@H](CS)C(=O)O | 31 µM | – | – |
| COC(=O)c1c(C)nc2n(CCN3CCCCC3)c3ccccc3n12 | 55 µM | – | – |
